Legend:
[1] = system: human lung (A549) cancer cell line; conditions: cited from earlier work
naïve CD4+ CD25− T cells = assay: Conversion of CD4+CD25− T cells into CD4+FoxP3+ Tregs in vitro; assay type: cell-based
Procedure: To assess the effect of psammaplin A on the generation of Tregs, naïve CD4+ CD25− T cells were cultured with mitomycin C treated APCs plus IL-2, TGFβ and anti-CD3 in the presence or absence of psammaplin A and numbers of CD4^+ FoxP3^+ Tregs were determined by FACS after 72 h. The RNA was isolated from cell lysate, and reverse transcribed to cDNA for RT-qPCR analysis using Taqman primer probes. Expression of genes encoding Foxp3 was normalized to HPRT expression and was calibrated relative to vehicle group.
The procedure under “Conversion of CD4+CD25− T cells into CD4+FoxP3+ Tregs in vitro” was followed. The frequencies of CD4+FoxP3+ Tregs were determined by FACS after 72 h (FIG. 3A and 3B).

[2] = system: collagen-induced arthritis mouse model; assay: Treatment of collagen-induced arthritis in vivo; conditions: DBA/1 mice, 10 mg/kg for 4 days from arthritis onset, scores monitored 10 days, vs vehicle
Procedure: DBA/1 mice were immunized with bovine type II collagen emulsified in complete Freund's adjuvant. The mice were treated with psammaplin A (10 mg/kg) for 4 days, starting on the day of arthritis onset. Treatment was then stopped. Negative controls received vehicle alone. Clinical scores were monitored for 10 days following onset of arthritis. A clinical scoring system was used as follows. Arthritis severity was scored by an experienced non-blinded investigator as follows: 0=normal, 1=slight swelling and/or erythema, 2=pronounced swelling, 3=ankylosis. All four limbs were scored, giving a maximum possible score of 12 per animal.
The procedure under “Treatment of collagen-induced arthritis in vivo” was followed.
Disease severity was evaluated daily and the mean clinical score of each treatment group was determined. The data points on the graph in FIG. 2 are the mean±SEM of the mice in each treatment.

[3] = system: skin (SK-MEL-2) cancer cell line; conditions: cited from earlier work
[4] = system: methicillin-resistant Staphylococcus aureus (MRSA); conditions: gram-positive bacteria, in particular MRSA; cited from earlier work
[5] = system: ovarian (SK-OV-3) cancer cell line; conditions: cited from earlier work
[6] = system: IDO1 expression in THP-1 cells; assay: Induction of IDO1 in THP-1 cells (RT-qPCR); assay type: cell-based, human; conditions: for IDO1 expression (fold change): 96 hours, vs DMSO control
Procedure: THP-1 cells were harvested from appropriate number of T75 flasks. Cells were counted in a Bürker chamber, stained with 0.4% Trypan Blue. The appropriate number of cells for each experiment were transferred to a new tube and centrifuged at 1200 rpm, 5 min at room temperature (RT). The supernatant was discarded and fresh RPMI with 5% FBS was added to get a cell concentration of 2×10^5 cells/mL. The compound was added to the five separate wells in 6-well plates such that five different final concentrations were obtained after adding the cells. A control was added to one well in the 6-well plate to which cells were added. 1×10^6 cells per well were seeded out to achieve a total volume of 5 mL per well. The cells were incubated at 37° C. in 5% CO2 for 96 hours. After 96 hours the assay was stopped and the cells were lysed for the isolation of RNA.
Total RNA was extracted from THP-1 cells using the RNA RNeasy Mini extraction kit (Qiagen), according to the manufacturer's instructions. A SuperScript® VILO™ RT-kit (Thermo Fisher) was used to reverse transcribe 1 μg of total RNA to cDNA and qPCR was performed. The primers used for amplification of the human IDO1 gene were 5″-[…]-3″ (forward; SEQ ID No. 1) and 5″-[…]-3″ (reverse; SEQ ID No. 2). The primers used for amplification of the endogenous reference gene for human HPRT1 were 5″-[…]-3″ (forward; SEQ ID No. 3) and 5″-[…]-3″ (reverse; SEQ ID No. 4). In brief, RT-qPCR was performed in 20 μl reaction, consisting 10 μl PowerUp SYBR Green Master Mix, 0.5 μM of each primer, 4 μl diluted cDNA for amplification of IDO1 and 1.5 μl diluted cDNA for amplification of HPRT1. An iCycler iQ real-time detection system (Stratagene, Mx3000P, La Jolla, Calif., USA) with the following thermal profile: UDG incubation at 50° C. for 2 min, then denaturation at 95° C. for 5 min, followed by 45 cycles at 94° C. for 15 s, 58° C. for 30 s, and 60° C. for 30 s, was used to perform thermocycling and real-time detection of PCR products. After amplification a melting curve analysis was performed. The RT-qPCR experiments were always run in triplicate. IDO1 was normalised to the geometric means of two HPRT1 reference gene, using the ΔCt method. Within-group comparisons were normalized to one control sample, using the ΔΔCt method.
The procedure under “Induction of IDO1 in THP-1 cells” was followed such that the final concentrations set out in Table 1 were obtained.
Following RNA extraction and quantification of gene expression by RT-qPRC, as described above, induction of IDO1 gene expression using Samples 1 to 6 was investigated.

[7] = system: CNS (XF498) cancer cell line; conditions: cited from earlier work
[8] = system: colon (HCT15) cancer cell line; conditions: cited from earlier work
[9] = molecular target: hepatitis C virus NS3 helicase (Hepatitis C virus genotype 1a, UniProt P27958); conditions: dose-response relationship, cited from earlier work
Chain of hepatitis C virus NS3 helicase (P27958 1027-1657): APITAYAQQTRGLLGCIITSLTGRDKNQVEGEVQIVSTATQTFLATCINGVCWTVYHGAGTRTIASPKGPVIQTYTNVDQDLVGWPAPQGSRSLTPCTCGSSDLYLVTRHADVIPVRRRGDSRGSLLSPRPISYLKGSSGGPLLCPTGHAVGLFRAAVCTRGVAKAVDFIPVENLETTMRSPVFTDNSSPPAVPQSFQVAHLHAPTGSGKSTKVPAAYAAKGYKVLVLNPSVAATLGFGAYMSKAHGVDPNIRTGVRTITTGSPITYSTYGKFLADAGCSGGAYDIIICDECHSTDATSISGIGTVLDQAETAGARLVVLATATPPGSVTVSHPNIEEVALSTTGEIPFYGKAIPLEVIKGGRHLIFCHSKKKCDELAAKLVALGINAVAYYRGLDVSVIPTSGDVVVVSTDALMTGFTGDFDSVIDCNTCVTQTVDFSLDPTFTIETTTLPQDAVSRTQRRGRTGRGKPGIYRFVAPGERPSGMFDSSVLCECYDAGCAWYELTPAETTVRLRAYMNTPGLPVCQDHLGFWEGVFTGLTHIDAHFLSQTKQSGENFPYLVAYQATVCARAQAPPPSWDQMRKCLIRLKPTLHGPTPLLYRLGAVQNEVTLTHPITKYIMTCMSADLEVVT

O=C(NCCSSCCNC(=O)/C(Cc1ccc(O)c(Br)c1)=N/O)/C(Cc1ccc(O)c(Br)c1)=N/O [psammaplin A]
cytotoxicity [1]: significant cytotoxicity
frequencies of CD4+FoxP3+ Tregs (FACS) (naïve CD4+ CD25− T cells; co-culture with mitomycin C treated APCs plus IL-2, TGFβ and anti-CD3, 72 h, vs control (nil)): increased in a dose-dependent manner
relative expression of the Foxp3 gene (RT-qPCR) (naïve CD4+ CD25− T cells; normalized to HPRT, relative to vehicle group (nil)): increased in a dose-dependent manner
disease severity (mean clinical score) [2]: successful in reducing disease severity
cytotoxicity [3]: significant cytotoxicity
antimicrobial effect [4]: antimicrobial effect
cytotoxicity [5]: significant cytotoxicity
IDO1 expression (fold change) ([6]; 0.05 micromolar): 0.9 fold change
IDO1 expression (fold change) ([6]; 0.1 micromolar): 0.6 fold change
IDO1 expression (fold change) ([6]; 1 micromolar): 0.9 fold change
IDO1 expression (fold change) ([6]; 3 micromolar): 4.5 fold change
IDO1 expression (fold change) ([6]; 5 micromolar): 20 fold change
increase of IDO1 gene expression (maximum) ([6]; psammaplin A alone, highest level at 5 micromolar): up to 20 fold
cytotoxicity [7]: significant cytotoxicity
cytotoxicity [8]: significant cytotoxicity
NS3 ATPase activity inhibition [9]: inhibits NS3 helicase and ATPase activities
NS3 helicase activity inhibition ([9]; non-competitive): inhibits NS3 helicase

— patent publication US20210299069A1, “PSAMMAPLIN A FOR MODULATING IDO EXPRESSION” (IDOGEN AB, priority 2016, published 2021)
